Experimental findings from ChEMBL document CHEMBL2074320, “Polyspecific organic anion transporting polypeptides mediate hepatic uptake of amphipathic type II organic cations” (J Pharmacol Exp Ther, 1999) are described below.

Series [1] has as its target T1, Solute carrier organic anion transporter family member 1A2 (OATP1A2) (Homo sapiens, UniProt P46721).
T1 sequence (P46721 whole entry): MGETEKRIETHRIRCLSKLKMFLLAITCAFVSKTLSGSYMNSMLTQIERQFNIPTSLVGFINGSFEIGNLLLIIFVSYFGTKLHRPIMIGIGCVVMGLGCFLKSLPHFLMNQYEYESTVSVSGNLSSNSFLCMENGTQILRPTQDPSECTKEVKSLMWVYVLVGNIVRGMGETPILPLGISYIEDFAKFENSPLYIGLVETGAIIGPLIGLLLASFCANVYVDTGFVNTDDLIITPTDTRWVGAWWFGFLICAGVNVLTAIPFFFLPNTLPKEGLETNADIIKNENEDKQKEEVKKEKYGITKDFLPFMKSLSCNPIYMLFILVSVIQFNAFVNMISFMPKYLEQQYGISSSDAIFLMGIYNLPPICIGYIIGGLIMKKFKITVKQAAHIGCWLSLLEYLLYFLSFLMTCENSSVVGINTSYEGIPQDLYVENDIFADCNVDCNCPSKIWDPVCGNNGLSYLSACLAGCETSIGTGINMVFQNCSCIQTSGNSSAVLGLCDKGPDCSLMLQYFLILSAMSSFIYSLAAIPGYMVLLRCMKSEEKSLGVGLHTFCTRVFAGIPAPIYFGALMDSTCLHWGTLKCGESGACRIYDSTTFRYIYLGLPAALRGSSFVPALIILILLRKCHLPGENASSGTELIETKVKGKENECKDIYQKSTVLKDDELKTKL
Description: (§1) TP_TRANSPORTER: uptake in Xenopus laevis oocytes. The class given is functional, cell-based, Oocyte. The conditions noted are these: Xenopus laevis oocytes expressing the transporter.

Series [2] has as its target T2, Solute carrier organic anion transporter family member 1A1 (Rattus norvegicus, UniProt P46720).
T2 sequence (P46720 whole entry): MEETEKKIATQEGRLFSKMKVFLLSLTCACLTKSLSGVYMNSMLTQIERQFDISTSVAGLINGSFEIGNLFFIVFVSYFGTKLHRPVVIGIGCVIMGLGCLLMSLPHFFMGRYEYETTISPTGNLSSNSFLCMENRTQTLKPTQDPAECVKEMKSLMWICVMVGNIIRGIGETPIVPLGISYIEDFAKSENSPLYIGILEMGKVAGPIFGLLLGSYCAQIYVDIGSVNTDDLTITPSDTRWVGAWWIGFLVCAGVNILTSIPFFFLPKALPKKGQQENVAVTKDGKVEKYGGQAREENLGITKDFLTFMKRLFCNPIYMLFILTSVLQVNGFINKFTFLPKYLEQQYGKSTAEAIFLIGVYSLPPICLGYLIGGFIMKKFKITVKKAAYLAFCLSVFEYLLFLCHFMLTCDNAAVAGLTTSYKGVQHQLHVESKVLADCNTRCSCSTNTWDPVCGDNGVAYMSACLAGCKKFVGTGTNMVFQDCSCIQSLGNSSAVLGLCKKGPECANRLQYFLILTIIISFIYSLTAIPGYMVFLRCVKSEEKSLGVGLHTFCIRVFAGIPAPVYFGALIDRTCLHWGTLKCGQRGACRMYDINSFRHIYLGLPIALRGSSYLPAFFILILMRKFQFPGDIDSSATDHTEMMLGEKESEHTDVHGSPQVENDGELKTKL
The series is described as §1. To be noted: oocyte. Format: functional, cell-based.

Series [3] deals with T3, Solute carrier organic anion transporter family member 1A4 (Rattus norvegicus, UniProt O35913).
T3 sequence (O35913 whole entry): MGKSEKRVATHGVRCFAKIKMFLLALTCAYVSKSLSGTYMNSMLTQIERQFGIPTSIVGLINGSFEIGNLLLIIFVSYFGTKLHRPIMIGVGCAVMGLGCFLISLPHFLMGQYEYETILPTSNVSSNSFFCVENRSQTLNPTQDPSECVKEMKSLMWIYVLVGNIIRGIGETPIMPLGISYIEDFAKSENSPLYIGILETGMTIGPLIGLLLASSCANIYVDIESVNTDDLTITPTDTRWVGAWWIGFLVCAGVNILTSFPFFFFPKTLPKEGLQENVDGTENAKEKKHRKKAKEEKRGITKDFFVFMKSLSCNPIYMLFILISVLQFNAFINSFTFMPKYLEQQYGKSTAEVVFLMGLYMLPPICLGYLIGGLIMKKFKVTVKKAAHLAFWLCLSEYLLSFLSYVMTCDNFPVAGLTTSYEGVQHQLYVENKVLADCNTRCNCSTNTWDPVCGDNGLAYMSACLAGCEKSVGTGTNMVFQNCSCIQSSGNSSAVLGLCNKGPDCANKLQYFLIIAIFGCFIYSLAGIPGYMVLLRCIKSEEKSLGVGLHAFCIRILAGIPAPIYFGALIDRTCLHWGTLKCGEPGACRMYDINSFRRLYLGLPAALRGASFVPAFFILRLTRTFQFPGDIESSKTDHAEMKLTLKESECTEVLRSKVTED
The description is as §1. The class given is functional, cell-based. To be noted: oocyte.

The target in series [4] is T4, Solute carrier organic anion transporter family member 1A2 (Homo sapiens, UniProt P46721).
T4 sequence (P46721 whole entry): T1 sequence (P46721 whole entry)
Described as §1. The class given is functional, cell-based, Oocyte. To be noted: oocyte.

The structures appear in SMILES notation.

Broadly, the Km is the concentration of substrate that gives half-maximal velocity. For the compound `C=C[C@H]1C[N+]2(C)CC[C@H]1C[C@H]2[C@H](O)c1ccnc2ccc(OC)cc12`, the Km in series [1] was found to be 5.1 µM. Also, the Activity entry in series [2] was “substrate [+]”; in series [3] it was “is not a substrate [-]”.
For `C=CC[N+]1([C@H]2C[C@H]3[C@@H]4CC[C@H]5C[C@H](O)[C@@H](N6CCOCC6)C[C@]5(C)[C@H]4CC[C@]3(C)[C@H]2OC(C)=O)CCCC1` [ROCURONIUM], the Activity entry in series [4], in series [2] and in series [3] was “substrate [+]” each time.
Take `C=C[C@H]1C[N+]2(C)CC[C@H]1C[C@@H]2[C@@H](O)c1ccnc2ccc(OC)cc12`: in series [1], the Km came to 25.6 µM. Also, the Activity result in series [2] and in series [3] was “is not a substrate [-]” each time.
Regarding `CCC1C[N+]2(CCCC3(C)N=N3)C3CC45c6ccccc6N(C)C4C2CC1C3C5O` (configuration not stated), the Activity entry in series [4], in series [2] and in series [3] was “substrate [+]” each time.
